According to publication PMC13352219, “Analysis of glutamine synthetase target‐site mutations and their role in endowing glufosinate‐ammonium resistance” (Pest Management Science, 2026):
Entries after “also recorded” stand apart in the source; their conditions may differ. Like-named read-outs stand apart in the source and are kept apart here.

Columns and labels:
[1] = molecular target: Amaranthus palmeri GS2.2 wild‐type (WT); assay: GS enzyme inhibition assay, GS2.2 wild-type; type: biochemical; conditions: GS2.2 WT
Method: (§1) GS activity was determined spectrophotometrically following the Sigma‐Aldrich enzymatic assay protocol. The reaction couples the ATP‐dependent conversion of L‐glutamate and ammonium to L‐glutamine with pyruvate kinase (PK) and L‐lactate dehydrogenase (LDH), such that oxidation of β‐NADH to β‐NAD^+ can be monitored at 340 nm. Recombinant GS from A. palmeri was expressed in E. coli, purified by affinity chromatography, and quantified by the Bradford method using bovine serum albumin as standard. […] Reaction mixtures were equilibrated to 37°C and initiated by the addition of enzyme, and the decrease in absorbance at 340 nm was recorded for 5–10 min; only the linear portion of the curve was used for activity calculations. […] Activity was calculated using an extinction coefficient for NADH of 6.22 mM^−1 cm^−1 and expressed as units per mg protein, where one unit corresponds to the formation of 1 μmol of L‐glutamine in […] at pH 7.1 and 37 °C. […] Percent inhibition was calculated relative to untreated (positive) and no‐enzyme (negative) controls. […] Resistance factors were calculated by dividing the IC₅₀ of each mutant variant by that of wild‐type GS.

[2] = test system: Amaranthus palmeri GS2.2 G255D; assay: GS enzyme inhibition assay, GS2.2 G255D; type: biochemical; conditions: full range of GFA concentrations tested (10^−8 M to 10^−2 M), listed as GFA
Method: as §1

[3] = test system: Arabidopsis thaliana plants expressing Amaranthus palmeri GS2.2 G255D; assay: Postemergence GFA spray on transgenic Arabidopsis expressing GS2.2 G255D; type: in vivo; conditions: 100, 500 and 1000 g ha^−1 postemergence, listed as GFA
Description: Mutant GS variants G2.2 G255D from A. palmeri and G254D from Arabidopsis were cloned into the RTP6557 transformation vector, which was subsequently introduced into Agrobacterium tumefaciens strain C58C1pMP90. The construct also carried an acetolactate synthase (ALS) herbicide‐resistance gene as a selectable marker, ensuring that Arabidopsis seedlings tested for resistance to GFA herbicide expressed the transgene.
Arabidopsis plants carrying immature floral buds were transformed by the floral‐dip method, immersing inflorescences for 10 s in the bacterial suspension supplemented with Silwet‐L77 at 0.05% v/v. After dipping, plants were maintained overnight under high humidity and low light, then transferred to long‐day conditions until maturity. Once siliques had yellowed, seeds were harvested into paper bags. T₁ seeds were collected, placed into Falcon tubes, and stored at 4 °C.
After ≥14 d of cold storage, T₁ seeds were sown and stratified as previously described. Transgenic plants were confirmed by PCR detection of the AHAS resistance marker gene. […]
Herbicide treatments were applied at the 10‐leaf stage using a spray chamber calibrated to deliver 375 L ha^−1 of spray solution. […] Herbicide efficacy was visually evaluated 7 d after application.

[4] = test system: Amaranthus palmeri cytosolic GS1.1 WT; assay: GS enzyme inhibition assay, GS1.1 WT; type: biochemical; conditions: for IC50: read-out: Glufosinate‐ammonium IC50
Method: GS activity was determined spectrophotometrically following the Sigma‐Aldrich enzymatic assay protocol. The reaction couples the ATP‐dependent conversion of L‐glutamate and ammonium to L‐glutamine with pyruvate kinase (PK) and L‐lactate dehydrogenase (LDH), such that oxidation of β‐NADH to β‐NAD^+ can be monitored at 340 nm. Recombinant GS from A. palmeri was expressed in E. coli, purified by affinity chromatography, and quantified by the Bradford method using bovine serum albumin as standard. Assays were conducted at 37 °C in 3 mL total volume containing 34.1 mM imidazole (pH 7.1), 102 mM sodium L‐glutamate, 8.5 mM ATP, 1.1 mM phosphoenolpyruvate, 60 mM MgCl₂, 18.9 mM KCl, 45 mM NH₄Cl, 0.25 mM β‐NADH, 28 U PK, 40 U LDH, and 0.4–0.8 U recombinant GS. Reaction mixtures were equilibrated to 37°C and initiated by the addition of enzyme, and the decrease in absorbance at 340 nm was recorded for 5–10 min; only the linear portion of the curve was used for activity calculations. For inhibition assays, GFA was added directly to the reaction mixture to final concentrations ranging from 10^−8 M to 10^−2 M, using 2.5‐fold serial dilutions, with a no‐inhibitor control included in each run. Activity was calculated using an extinction coefficient for NADH of 6.22 mM^−1 cm^−1 and expressed as units per mg protein, where one unit corresponds to the formation of 1 μmol of L‐glutamine in […] at pH 7.1 and 37 °C. Background activity was corrected by including blank assays without GS. Percent inhibition was calculated relative to untreated (positive) and no‐enzyme (negative) controls. Assays were conducted in triplicates. IC₅₀ values (concentration of inhibitor reducing GS activity by 50%) were estimated by nonlinear regression (three‐ or four‐parameter log‐logistic models). Resistance factors were calculated by dividing the IC₅₀ of each mutant variant by that of wild‐type GS.

[5] = test system: Amaranthus palmeri cytosolic GS1.1 E131G; assay: GS enzyme inhibition assay, GS1.1 E131G; type: biochemical
Method: as §1

[6] = test system: Amaranthus palmeri cytosolic GS1.1 E131K; assay: GS enzyme inhibition assay, GS1.1 E131K; type: biochemical
Method: as §1

[7] = test system: Amaranthus palmeri cytosolic GS1.1 H249R; assay: GS enzyme inhibition assay, GS1.1 H249R; type: biochemical
Method: as §1

[8] = test system: Amaranthus palmeri cytosolic GS1.1 R291G; assay: GS enzyme inhibition assay, GS1.1 R291G; type: biochemical
Method: as §1

[9] = test system: Amaranthus palmeri cytosolic GS1.1 R291L; assay: GS enzyme inhibition assay, GS1.1 R291L; type: biochemical
Method: as §1

[10] = test system: Amaranthus palmeri cytosolic GS1.1 R34A; assay: GS enzyme inhibition assay, GS1.1 R34A; type: biochemical
Method: as §1

[11] = test system: Amaranthus palmeri cytosolic GS1.1 Y55L; assay: GS enzyme inhibition assay, GS1.1 Y55L; type: biochemical
Method: as §1

[12] = test system: Amaranthus palmeri cytosolic GS1.1 D56S; assay: GS enzyme inhibition assay, GS1.1 D56S; type: biochemical
Method: as §1

[13] = test system: Amaranthus palmeri cytosolic GS1.1 S58M; assay: GS enzyme inhibition assay, GS1.1 S58M; type: biochemical
Method: as §1

[14] = test system: Amaranthus palmeri cytosolic GS1.1 E69L; assay: GS enzyme inhibition assay, GS1.1 E69L; type: biochemical
Method: as §1

[15] = test system: Amaranthus palmeri cytosolic GS1.1 G155F; assay: GS enzyme inhibition assay, GS1.1 G155F; type: biochemical
Method: as §1

[16] = test system: Amaranthus palmeri cytosolic GS1.1 Y158A; assay: GS enzyme inhibition assay, GS1.1 Y158A; type: biochemical
Method: as §1

[17] = test system: Amaranthus palmeri cytosolic GS1.1 K165S; assay: GS enzyme inhibition assay, GS1.1 K165S; type: biochemical
Method: as §1

[18] = test system: Amaranthus palmeri cytosolic GS1.1 E297Q; assay: GS enzyme inhibition assay, GS1.1 E297Q; type: biochemical
Method: as §1

[19] = test system: Amaranthus palmeri cytosolic GS1.1 E297S; assay: GS enzyme inhibition assay, GS1.1 E297S; type: biochemical; conditions: IC50 variant / IC50 WT
Method: as §1

[20] = test system: Amaranthus palmeri cytosolic GS1.1 A309L; assay: GS enzyme inhibition assay, GS1.1 A309L; type: biochemical
Method: as §1

[21] = read-out: Glufosinate‐ammonium IC50

Q: For `CP(=O)(O)CCC(N)C(=O)O` (centres unmarked) [Glufosinate‐ammonium], which IC50 [1] is on record?
A: 110 µM

Q: And the “inhibition by GFA” value [2]?
A: completely insensitive; also recorded: no measurable inhibition; also recorded: no detectable inhibition

Q: What about the “tolerance to GFA (visual injury)” value [3] of the same compound?
A: chlorosis and necrosis comparable to wild‐type controls

Q: What about the “Glufosinate‐ammonium % Inhibition at saturation 10 000 μM” value (from here on “Glufosinate‐ammonium % Inhibition”) ([4]; 10 000 μM) of the same compound?
A: 100%

Q: And the “Resistance index (RI)” value ([4]; IC50 variant / IC50 WT)?
A: 1

Q: And the IC50 ([4]; Table 2 panel)?
A: 22.5 µM

Q: What about the IC50 ([4]; Table 3 panel) of the same compound?
A: 21.7 µM

Q: What about the “Glufosinate‐ammonium % Inhibition” value ([5]; 10 000 μM) of the same compound?
A: 7.2%

Q: What about the IC50 [5, 21] of the same compound?
A: > 10000 µM

Q: And the “Glufosinate‐ammonium % Inhibition” value ([6]; 10 000 μM)?
A: 0%

Q: And the IC50 [6, 21]?
A: > 10000 µM

Q: And the “Glufosinate‐ammonium % Inhibition” value ([7]; 10 000 μM)?
A: 29%

Q: What about the IC50 [7, 21] of the same compound?
A: > 10000 µM

Q: And the “Glufosinate‐ammonium % Inhibition” value ([8]; 10 000 μM)?
A: 0%

Q: And the IC50 [8, 21]?
A: > 10000 µM

Q: And the “Glufosinate‐ammonium % Inhibition” value ([9]; 10 000 μM)?
A: 0%

Q: And the IC50 [9, 21]?
A: > 10000 µM

Q: What about the “Resistance index (RI)” value ([10]; IC50 variant / IC50 WT) of the same compound?
A: 8.4

Q: What about the IC50 [10, 21] of the same compound?
A: 182 µM

Q: And the “Resistance index (RI)” value ([11]; IC50 variant / IC50 WT)?
A: 0.8

Q: What about the IC50 [11, 21] of the same compound?
A: 17 µM

Q: And the “Resistance index (RI)” value ([12]; IC50 variant / IC50 WT)?
A: 2.6

Q: And the IC50 [12, 21]?
A: 56 µM

Q: And the “Resistance index (RI)” value ([13]; IC50 variant / IC50 WT)?
A: 4.3

Q: What about the IC50 [13, 21] of the same compound?
A: 94 µM

Q: And the “Resistance index (RI)” value ([14]; IC50 variant / IC50 WT)?
A: 11.4

Q: And the IC50 [14, 21]?
A: 246 µM

Q: And the “Resistance index (RI)” value ([15]; IC50 variant / IC50 WT)?
A: 11.7

Q: And the IC50 [15, 21]?
A: 254 µM

Q: And the “Resistance index (RI)” value ([16]; IC50 variant / IC50 WT)?
A: 64.6

Q: What about the IC50 [16, 21] of the same compound?
A: 1400 µM

Q: And the “Resistance index (RI)” value ([17]; IC50 variant / IC50 WT)?
A: 0.3

Q: And the IC50 [17, 21]?
A: 7.6 µM

Q: What about the “Resistance index (RI)” value ([18]; IC50 variant / IC50 WT) of the same compound?
A: 0.0

Q: What about the IC50 [18, 21] of the same compound?
A: 0.6 µM

Q: What about the “Resistance index (RI)” value [19] of the same compound?
A: 0.0

Q: What about the “Resistance index (RI)” value ([20]; IC50 variant / IC50 WT) of the same compound?
A: 9.4

Q: And the IC50 [20, 21]?
A: 204 µM
